Assays:
[1] = system: human neutrophils, monocytes, B-cells, and monocyte-derived dendritic cells; test: Binding of soluble β-glucan to immune cells, flow cytometry with glucan specific Ab BFD IV; assay type: cell-based; conditions: for binding to immune cells: human neutrophils, monocytes, monocyte-derived dendritic cells
Protocol: Monocyte-derived dendritic cells (MoDCs) were prepared from blood obtained from healthy volunteers as described in Peters et al. (Advances in Experimental Medicine and Biology; 329:275-280; 1993). At day 7, the MoDCs were resuspended in RPMI 1640 supplemented with 10% human serum (Sigma-Aldrich, St. Louis, Mo.). PBMCs were obtained from healthy volunteers and similarly resuspended in RPMI 1640 supplemented with 10% human serum. The MoDCs and PBMCs were treated with vehicle alone or with IMPRIME (Biothera, Eagan, Minn.) at 100 μg/mL, 200 μg/mL, or 400 μg/mL for two hours. Binding of IMPRIME was assessed by flow cytometric analysis with a glucan specific Ab BFD IV (U.S. Pat. No. 6,084,092).

[2] = system: B cells (CD19+) in PBMCs; test: Modulation of TLR 7/8 agonist CL097-induced B cell proliferation (CFSE dilution, FACS); assay type: cell-based; conditions: 2 μM CL097 with 50 μg/mL IMPRIME PGG, five days, 10% human serum
Protocol: (§1) TLR activation of B cells induces cellular proliferation that can be measured by a reduction in the staining intensity of the intracellular dye, carboxyfluorescein succinimidyl ester (CFSE, Invitrogen, Life Technologies Corp., Carlsbad, Calif.). The principle behind this technique is that as a cell divides the CFSE dye is diluted in half between the daughter cells after each division.
(§2) PBMCs obtained from healthy volunteers were treated with 2 μM CL097 (InvivoGen, San Diego, Calif.) in the presence or absence of 50 μg/mL IMPRIME PGG (Biothera, Eagan, Minn.) and cultured over five days in media containing 10% fresh human serum (Sigma-Aldrich, St. Louis, Mo.). The cells were stained with an anti-CD19 antibody (BioLegend, Inc., San Diego, Calif.) to identify the B cell subset in the PBMC mixture and intensity of CFSE staining was measured my FACS analysis (BD Biosciences, San Jose, Calif.).

[3] = system: B cells (CD19+) in PBMCs; test: Modulation of TLR 9 agonist CpG 2006-induced B cell proliferation (CFSE dilution, FACS); assay type: cell-based; conditions: 100 nM CpG 2006 with 50 μg/mL IMPRIME PGG, five days, 10% human serum
Protocol: as §1
as §2, with “100 nM CpG 2006” for “2 μM CL097”

[4] = system: monocytes (CD14+) in PBMCs; test: Modulation of TLR 4 agonist LPS-induced co-stimulatory marker CD40 expression by monocytes (FACS); assay type: cell-based, human
Protocol: PBMCs obtained from healthy volunteers were treated with 25 ng/mL LPS (InvivoGen, San Diego, Calif.) either concurrently with noted doses of IMPRIME PGG (Biothera, Eagan, Minn.) or after cells were pretreated overnight with IMPRIME PGG. The cells were cultured over five days in media containing 10% fresh human serum and then stained with an anti-CD14 antibody (BioLegend, Inc., San Diego, Calif.) to identify the monocyte subset in the PBMC mixture and an anti-CD40 antibody (BioLegend, Inc., San Diego, Calif.) to evaluate CD40 expression by FACS analysis (BD Biosciences, San Jose, Calif.).

[5] = system: systemic pro-inflammatory cytokines; test: Induction of systemic pro-inflammatory cytokines

What does the source list for “β(1,6)-[poly-1,3)-D-glucopyranosyl]-poly-β(1,3)-D-glucopyranose [IMPRIME PGG]”?
binding to immune cells [1]: can bind; receptors through which immune cell subsets are bound ([1]; neutrophils and monocytes): through complement binding receptors (CR2 on B-cells; CR3 on neutrophils and monocytes), not a TLR; B cell proliferation compared to PBMCs treated with only the TLR agonist [2]: increases B cell proliferation; B cell proliferation compared to PBMCs treated with only the TLR agonist [3]: increases B cell proliferation; CD40 expression effect with pre-incubation ([4]; PBMCs pre-incubated overnight with IMPRIME PGG before 25 ng/mL LPS): magnified; CD40 expression compared to treating the PBMCs with only the TLR agonist ([4]; PBMCs, 25 ng/mL LPS concurrently with IMPRIME PGG, five days): an increase in CD40 expression; induction of systemic pro-inflammatory cytokines [5]: do not appear to induce systemic pro-inflammatory cytokines

Which “binding to immune cells” value [1] does the source give for laminarin [reference compound] here?
The value was “can bind”.

From US10166289B2, “Compositions including beta-glucans and method of use” (BIOTHERA, INC., priority 2011, dated 2019)
